Data taken from patent US11247990B1, “Bicyclic fused pyridine compounds as inhibitors of TAM kinases” (ARRAY BIOPHARMA INC., priority 2017, dated 2022).
pIC50: −log10 of the molar value.

Biological target: His-tagged recombinant human MER cytoplasmic domain (Homo sapiens (Human), UniProt Q12866)
Assay: MER Enzyme Assay (LanthaScreen Eu Kinase Binding, TR-FRET)
Conditions: averaged IC50
Description: Compounds of Formula I were screened for their ability to inhibit MER kinase using Invitrogen's LanthaScreen™ Eu Kinase Binding technology. […] After a 60-minute incubation at 22° C., the reaction was measured using a PerkinElmer EnVision multimode plate reader via TR-FRET dual wavelength detection, and the percent of control (POC) was calculated using a ratiometric emission factor. […] The POC values are fit to a 4 parameter logistic curve and the IC50 value is point where the curve crosses 50 POC.

Chain of His-tagged recombinant human MER cytoplasmic domain (Q12866 527-999): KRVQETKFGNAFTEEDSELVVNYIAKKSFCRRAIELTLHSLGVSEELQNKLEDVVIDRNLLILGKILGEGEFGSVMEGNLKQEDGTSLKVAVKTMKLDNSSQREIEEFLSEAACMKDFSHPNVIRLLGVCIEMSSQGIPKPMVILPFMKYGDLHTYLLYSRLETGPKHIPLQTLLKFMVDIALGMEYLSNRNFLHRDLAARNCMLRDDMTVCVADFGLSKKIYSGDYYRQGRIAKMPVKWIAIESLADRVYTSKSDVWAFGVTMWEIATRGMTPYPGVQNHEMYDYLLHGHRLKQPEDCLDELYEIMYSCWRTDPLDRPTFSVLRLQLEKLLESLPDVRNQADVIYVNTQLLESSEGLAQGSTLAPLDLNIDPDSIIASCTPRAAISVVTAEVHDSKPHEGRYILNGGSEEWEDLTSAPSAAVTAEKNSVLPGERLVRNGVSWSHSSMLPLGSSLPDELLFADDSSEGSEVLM

Structure (SMILES) | pIC50
CNc1cc2c(cn1)c(-c1cnn(C)c1)nn2[C@H]1CC[C@@H](Oc2ccc(=O)[nH]c2)CC1 [Example 25, 5-(((1s,4s)-4-(3-(1-methyl-1H-pyrazol-4-yl)-6-(methylamino)-1H-pyrazolo[4,3-c]pyridin-1-yl)cyclohexyl)oxy)pyridin-2(1H)-one] | > 8.00
CCNc1cc2c(cn1)c(-c1ccc(CN3CCN(CCOC)CC3)cc1)nn2[C@H]1CC[C@@H](Oc2ccc(=O)n(C)n2)CC1 [Example 82, 6-(((1s,4s)-4-(6-(ethylamino)-3-(4-((4-(2-methoxyethyl)piperazin-1-yl)methyl)phenyl)-1H-pyrazolo[4,3-c]pyridin-1-yl)cyclohexyl)oxy)-2-methylpyridazin-3(2H)-one] | > 8.00
CCNc1cc2c(cn1)c(-c1ccc(CN3CC[C@@H](OC)C3)cc1)nn2[C@H]1CC[C@@H](Oc2ccc(=O)n(C)n2)CC1 [Example 83, 6-(((1S,4s)-4-(6-(ethylamino)-3-(4-(((R)-3-methoxypyrrolidin-1-yl)methyl)phenyl)-1H-pyrazolo[4,3-c]pyridin-1-yl)cyclohexyl)oxy)-2-methylpyridazin-3(2H)-one] | > 8.00
CCNc1cc2c(cn1)c(-c1ccc(CN3CC(C)(O)C3)cc1)nn2[C@H]1CC[C@@H](Oc2ccc(=O)n(C)n2)CC1 [Example 90, 6-(((1s,4s)-4-(6-(ethylamino)-3-(4-((3-hydroxy-3-methylazetidin-1-yl)methyl)phenyl)-1H-pyrazolo[4,3-c]pyridin-1-yl)cyclohexyl)oxy)-2-methylpyridazin-3(2H)-one] | > 8.00
CCNc1cc2c(cn1)c(-c1ccc(CN3CC[C@@H](CO)C3)cc1)nn2[C@H]1CC[C@@H](Oc2ccc(=O)n(C)n2)CC1 [Example 95, 6-(((1S,4s)-4-(6-(ethylamino)-3-(4-(((R)-3-(hydroxymethyl)pyrrolidin-1-yl)methyl)phenyl)-1H-pyrazolo[4,3-c]pyridin-1-yl)cyclohexyl)oxy)-2-methylpyridazin-3(2H)-one] | > 8.00
CCNc1cc2c(cn1)c(-c1ccc(CN3C[C@H](C)[C@@H](O)C3)cc1)nn2[C@H]1CC[C@@H](Oc2ccc(=O)n(C)n2)CC1 [Example 96, 6-(((1S,4s)-4-(6-(ethylamino)-3-(4-(((3R,4S)-3-hydroxy-4-methylpyrrolidin-1-yl)methyl)phenyl)-1H-pyrazolo[4,3-c]pyridin-1-yl)cyclohexyl)oxy)-2-methylpyridazin-3(2H)-one] | > 8.00
CCNc1cc2c(cn1)c(-c1ccc(CN3CC[C@@H](C)C3)cc1)nn2C1CCC(Oc2ccc(=O)n(C)n2)CC1 (stereo partly drawn) [Example 98, 6-(((1S,4s)-4-(6-(ethylamino)-3-(4-(((R)-3-methylpyrrolidin-1-yl)methyl)phenyl)-1H-pyrazolo[4,3-c]pyridin-1-yl)cyclohexyl)oxy)-2-methylpyridazin-3(2H)-one] | > 8.00
CCNc1cc2c(cn1)c(Br)nn2[C@H]1CC[C@@H](Oc2ccc(=O)[nH]c2C(F)(F)F)CC1 [Example 106] | > 8.00
CNc1cc2c(cn1)c(-c1cnn(C)c1)nn2[C@H]1CC[C@@H](Oc2cccc(=O)n2C)CC1 [Example 110, 1-methyl-6-(((1s,4s)-4-(3-(1-methyl-1H-pyrazol-4-yl)-6-(methylamino)-1H-pyrazolo[4,3-c]pyridin-1-yl)cyclohexyl)oxy)pyridin-2(1H)-one] | > 8.00
CNc1cc2c(cn1)c(-c1cnn(C)c1)nn2[C@H]1CC[C@@H](Oc2cccnc2OC)CC1 [Example 142, 1-((1s,4s)-4-((2-methoxypyridin-3-yl)oxy)cyclohexyl)-N-methyl-3-(1-methyl-1H-pyrazol-4-yl)-1H-pyrazolo[4,3-c]pyridin-6-amine] | > 8.00
CNc1cc2c(cn1)c(-c1cnn(C)c1)nn2[C@H]1CC[C@@H](Oc2ccnn2C)CC1 [Example 143, N-methyl-3-(1-methyl-1H-pyrazol-4-yl)-1-((1s,4s)-4-((1-methyl-1H-pyrazol-5-yl)oxy)cyclohexyl)-1H-pyrazolo[4,3-c]pyridin-6-amine] | > 8.00
CNc1cc2c(cn1)c(-c1cnn(C)c1)nn2[C@H]1CC[C@@H](Oc2nccc(C(F)(F)F)n2)CC1 [Example 153, N-methyl-3-(1-methyl-1H-pyrazol-4-yl)-1-((1s,4s)-4-((4-(trifluoromethyl)pyrimidin-2-yl)oxy)cyclohexyl)-1H-pyrazolo[4,3-c]pyridin-6-amine] | > 8.00
CCNc1cc2c(cn1)c(-c1cnn(C(C)(C)C#N)c1)nn2[C@H]1CC[C@@H](Oc2nccnc2C)CC1 [Example 181, 2-(4-(6-(ethylamino)-1-((1s,4s)-4-((3-methylpyrazin-2-yl)oxy)cyclohexyl)-1H-pyrazolo[4,3-c]pyridin-3-yl)-1H-pyrazol-1-yl)-2-methylpropanenitrile] | > 8.00
CCNc1cc2c(cn1)c(-c1cnn(C)c1)nn2[C@H]1CC[C@@H](Oc2cccnc2C)CC1 [Example 185, N-ethyl-3-(1-methyl-1H-pyrazol-4-yl)-1-((1s,4s)-4-((2-methylpyridin-3-yl)oxy)cyclohexyl)-1H-pyrazolo[4,3-c]pyridin-6-amine] | > 8.00
CCNc1cc2c(cn1)c(-c1cnn(C)c1)nn2[C@H]1CC[C@@H](Oc2cccnc2C2CC2)CC1 [Example 186, 1-((1s,4s)-4-((2-cyclopropylpyridin-3-yl)oxy)cyclohexyl)-N-ethyl-3-(1-methyl-1H-pyrazol-4-yl)-1H-pyrazolo[4,3-c]pyridin-6-amine] | > 8.00
CCNc1cc2c(cn1)c(-c1cnn(C)c1)nn2[C@H]1CC[C@@H](Oc2nccnc2C)CC1 [Example 189, N-ethyl-3-(1-methyl-1H-pyrazol-4-yl)-1-((1s,4s)-4-((3-methylpyrazin-2-yl)oxy)cyclohexyl)-1H-pyrazolo[4,3-c]pyridin-6-amine] | > 8.00
CCNc1cc2c(cn1)c(-c1cnn(C)c1)nn2[C@H]1CC[C@@H](Oc2cccnc2C(C)C)CC1 [Example 192, N-ethyl-1-((1s,4s)-4-((2-isopropylpyridin-3-yl)oxy)cyclohexyl)-3-(1-methyl-1H-pyrazol-4-yl)-1H-pyrazolo[4,3-c]pyridin-6-amine] | > 8.00
CCNc1cc2c(cn1)c(-c1cnn(C)c1)nn2[C@H]1CC[C@@H](Oc2cccnc2CC)CC1 [Example 193, N-ethyl-1-((1s,4s)-4-((2-ethylpyridin-3-yl)oxy)cyclohexyl)-3-(1-methyl-1H-pyrazol-4-yl)-1H-pyrazolo[4,3-c]pyridin-6-amine] | > 8.00
CCNc1cc2c(cn1)c(-c1cnn(C)c1)nn2[C@H]1CC[C@@H](Oc2cc(C#N)ccn2)CC1 [Example 200, 2-(((1s,4s)-4-(6-(ethylamino)-3-(1-methyl-1H-pyrazol-4-yl)-1H-pyrazolo[4,3-c]pyridin-1-yl)cyclohexyl)oxy)isonicotinonitrile] | > 8.00
CCNc1cc2c(cn1)c(-c1cnn(C)c1)nn2[C@H]1CC[C@@H](Oc2cnnn2CC)CC1 [Example 225, N-ethyl-1-((1 s,4s)-4-((1-ethyl-1H-1,2,3-triazol-5-yl)oxy)cyclohexyl)-3-(1-methyl-1H-pyrazol-4-yl)-1H-pyrazolo[4,3-c]pyridin-6-amine] | > 8.00
CCNc1cc2c(cn1)c(-c1ccc(CN3CCN(C)CC3)cc1)nn2[C@H]1CC[C@@H](Oc2cn(C)nc2C)CC1 [Example 229, 1-((1s,4s)-4-((1,3-dimethyl-1H-pyrazol-4-yl)oxy)cyclohexyl)-N-ethyl-3-(4-((4-methylpiperazin-1-yl)methyl)phenyl)-1H-pyrazolo[4,3-c]pyridin-6-amine] | > 8.00
CCNc1cc2c(cn1)c(-c1ccc3c(c1)CNC3=O)nn2[C@H]1CC[C@@H](Oc2cn(C)nc2C)CC1 [Example 230, 5-(1-((1s,4s)-4-((1,3-dimethyl-1H-pyrazol-4-yl)oxy)cyclohexyl)-6-(ethylamino)-1H-pyrazolo[4,3-c]pyridin-3-yl)isoindolin-1-one] | > 8.00
CCNc1cc2c(cn1)c(-c1ccc(C(=O)NC3CC3)cc1)nn2[C@H]1CC[C@@H](Oc2cn(C)nc2C)CC1 [Example 231, N-cyclopropyl-4-(1-((1s,4s)-4-((1,3-dimethyl-1H-pyrazol-4-yl)oxy)cyclohexyl)-6-(ethylamino)-1H-pyrazolo[4,3-c]pyridin-3-yl)benzamide] | > 8.00
CCNc1cc2c(cn1)c(-c1ccc(CN3CCN(C)CC3)cc1)nn2[C@H]1CC[C@@H](Oc2cnn(C)c2)CC1 [Example 233, N-ethyl-1-((1s,4s)-4-((1-methyl-1H-pyrazol-4-yl)oxy)cyclohexyl)-3-(4-((4-methylpiperazin-1-yl)methyl)phenyl)-1H-pyrazolo[4,3-c]pyridin-6-amine] | > 8.00
CCNc1cc2c(cn1)c(-c1cnn(C[C@@H](O)CO)c1)nn2[C@H]1CC[C@@H](Oc2ccnc(C(F)(F)F)n2)CC1 [Example 241, (R)-3-(4-(6-(ethylamino)-1-((1s,4S)-4-((2-(trifluoromethyl)pyrimidin-4-yl)oxy)cyclohexyl)-1H-pyrazolo[4,3-c]pyridin-3-yl)-1H-pyrazol-1-yl)propane-1,2-diol] | > 8.00
CCNc1cc2c(cn1)c(-c1cnc(OC)nc1)nn2[C@H]1CC[C@@H](Oc2nccc(C(F)(F)F)c2F)CC1 [Example 269, N-ethyl-1-((1s,4s)-4-((3-fluoro-4-(trifluoromethyl)pyridin-2-yl)oxy)cyclohexyl)-3-(2-methoxypyrimidin-5-yl)-1H-pyrazolo[4,3-c]pyridin-6-amine] | > 8.00
CCNc1cc2c(cn1)c(C1CCCOC1)nn2[C@H]1CC[C@@H](Oc2nccc(C(F)(F)F)c2F)CC1 (stereo partly shown) [Example 318, N-ethyl-1-((1s,4s)-4-((3-fluoro-4-(trifluoromethyl)pyridin-2-yl)oxy)cyclohexyl)-3-(tetrahydro-2H-pyran-3-yl)-1H-pyrazolo[4,3-c]pyridin-6-amine] | > 8.00
CNc1cc2c(cn1)c(-c1cnn(C)c1)nn2[C@H]1CC[C@@H](Oc2c(F)cccc2F)CC1 [Example 356, 1-((1s,4s)-4-(2,6-difluorophenoxy)cyclohexyl)-N-methyl-3-(1-methyl-1H-pyrazol-4-yl)-1H-pyrazolo[4,3-c]pyridin-6-amine] | > 8.00
